Converted amounts (≈) assume the structure as drawn.
Experiments:
[1] = system: P. falciparum D6 (CDC/Sierra Leone I, D-6); assay: In vitro screening protocol I, [3H]-hypoxanthine incorporation, D6; type: cell-based, Plasmodium falciparum; conditions: In vitro screening protocol I, P. falciparum D6; for IC50: Plasmodium falciparum, read-out: IC50 D6
Method in brief: (§1)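 Asexual blood-stage P. falciparum was cultured in human A+ erythrocytes at 37 °C under 5% CO2/5% O2, and growth was measured by [3H]-hypoxanthine incorporation over 72 h total. TM91C235 was prescreened at 25,000, 2,500 and 25 ng/ml in folate-free medium. D-6 and W-2 IC50s came from 11-point two-fold dilutions by logistic fit.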

[2] = system: Plasmodium falciparum strain W2; assay: In vitro screening protocol II, [3H] hypoxanthine incorporation IC50 assay, W2; type: cell-based; conditions: P. falciparum W2; for IC50: Plasmodium falciparum
Description: (§2) The protocol described here is a modification of the in vitro screening protocol I and the details of the methodology are given below.
(§3) Plasmodium falciparum strains 3D7A and W2.
(§4) The culture medium comprised RPMI 1640 with 25 mM HEPES, sodium bicarbonate and glutamine (GIBCO™ cat. ref.: 52400), supplemented with 10% of pooled human sera AB (Bioreclamation HMSRM-AB)) and HT supplement (0.15 mM hypoxanthine and 24 μM thymidine), (GIBCO™ cat. ref.: 41065). Human sera were decomplemented 30 min. at 56° C., aliquoted and stored frozen at −20° C. until use in this culture medium.
(§5) This culture medium (“complete medium”) was usually prepared fresh just before use and pre-warmed to 37° C.
(§6) Red blood cells AB− stock suspensions were prepared from whole blood bags coming from incomplete blood donation, provided by the Spanish Red Cross (<25 days after sampling). This “whole blood” was aliquoted and stored at 4° C.
(§7) To prepare red blood cells for the assay, the whole blood was centrifuged and washed 3 times with RPMI without serum. The upper phase, containing white blood cells was removed. The washed red blood cells were kept as a 50% suspension in complete medium. The prepared cells were stored at 4° C. and were employed in the assay at any time up to 4 days after preparation.
(§8) Test compounds were dissolved at 2 mg/ml in 100% DMSO on the day of the assay. If necessary, complete dissolution was achieved by gentle heating (the mixture was heated at a temperature <37° C.) and sonication (sonication bath).
(§9) For IC50 determinations, 10 serial 2-fold dilutions were prepared in complete medium in the presence of a constant amount of DMSO. Any obvious signs of insolubility of the stock solutions in 100% DMSO or precipitation when these solutions were diluted in assay media, were recorded.
(§10) Plasmodium falciparum strains were maintained in complete medium at 5% of hematocrit in continuous culture using a method adapted from Trager W. and Jensen J. B. (Human malaria parasites in continuous culture Science 193 (4254) (1976) 673-675) and Trager W. (Cultivation of malaria parasites Methods Cell Biol. 45 (1994) 7-26).
(§11) The parasitemia was calculated by counting the percentage of parasitized erythrocytes by optical microscopy. Thin films of blood were made every day from each culture flask, fixed with methanol and stained for 10 min. in Giemsa (Merck, cat ref.: 1.09204) at 10% in buffered water pH 7.2. The glass slides were observed and counted with an optical microscope (Nikon, Eclipse E200) equipped with a 100× immersion oil objective.
(§12) The culture was maintained at 5% of hematocrit, with a daily change of medium and was diluted when parasitemia had reached about 5%.
(§13) [^3H] Hypoxanthine incorporation assay was conducted using a method adapted from Desjardins R. E. et al. (Quantitative assessment of antimalarial activity in vitro by a semiautomated microdilution technique. Antimicrob. Agents Chemother., 16 (6) (1979) 710-718). The assays were performed in 96 wells flat bottom microplates.
(§14) 1. Serial dilutions of each test compound (25 μl of a 5× solution/well) were deposited in one row of assay microtiter plate. Compounds of this invention were tested in this assay. Chloroquine and Azithromycin were used as control compounds for each assay.
(§15) 2. […] 100 μl of the resulting suspension was distributed into each well of columns 1-11 of assay microtiter plate leading to a final volume of 125 μl per well, at 1.2% of hematocrit and 0.4% of parasitemia/well.
(§16) 3. In each plate, 2 columns were reserved for control wells: • Column 11 (comprising wells A11-H11): Positive control wells: Untreated PRBCs to compare with cultures treated with test compounds. • Column 12 (comprising wells A12-H12): • Background value wells: Uninfected RBCs—blank control to obtain the background reading from RBCs without parasites (at 1.2% of hematocrite value).
(§17) 4. The plates were incubated at 37° C. under low oxygen atmosphere. […]

[3] = system: P. falciparum W2 (CDC/Indochina III, W-2); assay: In vitro screening protocol I, [3H]-hypoxanthine incorporation, W2; type: cell-based, Plasmodium falciparum; conditions: In vitro screening protocol I, P. falciparum W2; for IC50: Plasmodium falciparum, read-out: IC50 W2
Method in brief: as §1

[4] = system: Plasmodium falciparum strain 3D7A; assay: In vitro screening protocol II, [3H] hypoxanthine incorporation IC50 assay, 3D7A; type: cell-based; conditions: P. falciparum 3D7A; for IC50: Plasmodium falciparum
Description: as §2, §3, §4, §5, §6, §7, §8, §9, §10, §11, §12, §13, §14, §15, §16, §17

[5] = system: P. falciparum TM91C235; assay: In vitro screening protocol I, [3H]-hypoxanthine incorporation, TM91C235; type: cell-based, Plasmodium falciparum; conditions: In vitro screening protocol I, P. falciparum TM91C235; for IC50: Plasmodium falciparum, read-out: IC50 TM91C235
[6] = system: Plasmodium cynomolgi; conditions: rhesus monkey; cited from earlier work
[7] = system: Plasmodium falciparum; conditions: non-immune patients, as compared to controls; cited from earlier work
[8] = system: Plasmodium vivax; conditions: non-immune patients, as compared to controls; cited from earlier work
[9] = system: Plasmodium yoelii nigeriensis; conditions: cited from earlier work
[10] = system: Plasmodium berghei; conditions: cited from earlier work

CC[C@H]1OC(=O)[C@H](C)[C@@H](O[C@H]2C[C@@](C)(OC)[C@@H](O)[C@H](C)O2)[C@H](C)[C@@H](O[C@@H]2O[C@H](C)C[C@H](N(C)C)[C@H]2O)[C@](C)(O)C[C@@H](C)CN(CCCNCc2cccc3ccccc23)[C@H](C)[C@@H](O)[C@]1(C)O [Example 8, 9a-{3-[(Naphtalen-1-yl-methyl)amino]propyl}-9-deoxo-9-dihydro-9a-aza-9a-homoerythromycin A]
IC50 [1]: < 0.1 mg/L
IC50 [2]: < 0.1 mg/L
IC50 [3]: < 0.1 mg/L
IC50 [4]: 0.1 to 0.2 mg/L (≈ 0.107 to 0.215 µM)
IC50 [5]: < 0.1 mg/L

CC[C@H]1OC(=O)[C@H](C)[C@@H](O[C@H]2C[C@@](C)(OC)[C@@H](O)[C@H](C)O2)[C@H](C)[C@@H](O[C@@H]2O[C@H](C)C[C@H](N(C)C)[C@H]2O)[C@](C)(O)C[C@@H](C)CN(C)[C@H](C)[C@@H](O)[C@]1(C)O [azithromycin, reference compound]
efficacy in monkey model [6]: active
IC50 [1]: 1 to 2.5 mg/L (≈ 1.34 to 3.34 µM)
prophylactic efficacy [7]: 71.6%
IC50 [2]: 2.5 to 2.8 mg/L (≈ 3.34 to 3.74 µM)
IC50 [3]: 2.8 to 3.5 mg/L (≈ 3.74 to 4.67 µM)
prophylactic efficacy [8]: 98.9%
IC50 [5]: 3.5 to 5 mg/L (≈ 4.67 to 6.68 µM)

midecamycinin
efficacy in monkey model [6]: no efficacy
activity in mouse model [9]: active
activity in mouse model [10]: active

CC[C@H]1OC(=O)[C@H](C)[C@@H](O)[C@H](C)[C@@H](O[C@@H]2O[C@H](C)C[C@H](N(C)C)[C@H]2O)[C@](C)(O)C[C@@H](C)CN(CCCNCc2ccnc3ccccc23)[C@H](C)[C@@H](O)[C@]1(C)O [Example 15, 9a-{3-[(Quinolin-4-yl-methyl)amino]propyl}-3-O-decladinosyl-9-deoxo-9-dihydro-9a-aza-9a-homoerythromycin A]
IC50 D6 [1]: B (100 < X ≦ 200)
IC50 W2 [2]: C (200 < X ≦ 1000)
IC50 W2 [3]: B (100 < X ≦ 200)
IC50 3D7A [4]: C (200 < X ≦ 1000)
IC50 TM91C235 [5]: C (200 < X ≦ 1000)

CC[C@H]1OC(=O)[C@H](C)[C@@H](O)[C@H](C)[C@@H](O)[C@](C)(O)C[C@@H](C)CN(CCCNc2ccnc3cc(Cl)ccc23)[C@H](C)[C@@H](O)[C@]1(C)O [Example 56]
IC50 [2]: 0.1 to 0.2 mg/L (≈ 0.157 to 0.313 µM)
IC50 [4]: < 0.1 mg/L

CCC1OC(=O)C(C)C(OC2CC(C)(OC)C(O)C(C)O2)C(C)C(OC2OC(C)CC(N(C)C)C2O)C(C)(O)CC(C)CN(CCCNC(=O)Cc2ccc(F)cc2)C(C)C(O)C1(C)O.O=CO (stereo not shown) [Example 68, 9a-(3-{[(4-Fluorophenyl)acetyl]amino}propyl)-9-deoxo-9-dihydro-9a-aza-9a-homoerythromycin A Formiate Salt]
IC50 W2 [2]: C (200 < X ≦ 1000)
IC50 3D7A [4]: F (2800 < X ≦ 3500)

CCC1OC(=O)C(C)C(OC2CC(C)(OC)C(O)C(C)O2)C(C)C(OC2OC(C)CC(N(C)C)C2O)C(C)(O)CC(C)CN(CCCNC(=O)c2cc(F)c(F)c(OC)c2F)C(C)C(O)C1(C)O.O=CO (stereo not shown) [Example 59, 9a-[3-({[2,4,5-Trifluoro-3-(methyloxy)phenyl]carbonyl}amino)propyl]-9-deoxo-9-dihydro-9a-aza-9a-homoerythromycin A Formiate Salt]
IC50 W2 [2]: B (100 < X ≦ 200)
IC50 3D7A [4]: D (1000 < X ≦ 2500)

CC(=O)O.CC(=O)O.CC(=O)O.CCC1OC(=O)C(C)C(OC2CC(C)(OC)C(O)C(C)O2)C(C)C(OC2OC(C)CC(N(C)C)C2O)C(C)(O)CC(C)CN(CCCNc2ccnc3cc(Cl)ccc23)C(C)C(O)C1(C)O (stereo not shown) [Example 77]
IC50 W2 [2]: A (X ≦ 100)
IC50 3D7A [4]: A (X ≦ 100)

Reference: patent US20090105301A1, “9A-SUBSTITUTED AZALIDES FOR THE TREATMENT OF MALARIA” (priority 2006, published 2009)
